Experimental data from patent publication US8134015B2, “Compound inhibiting in vivo phosphorous transport and medicine containing the same” (Kyowa Hakko Kirin Co., Ltd., priority 2003, dated 2012).

molecular target: T1, rat NaPi-2b (Rattus norvegicus, UniProt Q9JJ09); experiment: Sodium-dependent phosphate uptake of Xenopus oocytes which expressed NaPi-2b (32P); assay type: cell-based; details: Xenopus oocytes expressing rat NaPi-2b, 32P radioactive phosphorus; read-out: IC50 (phosphate uptake inhibitory activity)
T1 construct: expressed in transfected cells; host or cells: Xenopus oocytes injected with cRNA
T1 sequence (Q9JJ09 1-695): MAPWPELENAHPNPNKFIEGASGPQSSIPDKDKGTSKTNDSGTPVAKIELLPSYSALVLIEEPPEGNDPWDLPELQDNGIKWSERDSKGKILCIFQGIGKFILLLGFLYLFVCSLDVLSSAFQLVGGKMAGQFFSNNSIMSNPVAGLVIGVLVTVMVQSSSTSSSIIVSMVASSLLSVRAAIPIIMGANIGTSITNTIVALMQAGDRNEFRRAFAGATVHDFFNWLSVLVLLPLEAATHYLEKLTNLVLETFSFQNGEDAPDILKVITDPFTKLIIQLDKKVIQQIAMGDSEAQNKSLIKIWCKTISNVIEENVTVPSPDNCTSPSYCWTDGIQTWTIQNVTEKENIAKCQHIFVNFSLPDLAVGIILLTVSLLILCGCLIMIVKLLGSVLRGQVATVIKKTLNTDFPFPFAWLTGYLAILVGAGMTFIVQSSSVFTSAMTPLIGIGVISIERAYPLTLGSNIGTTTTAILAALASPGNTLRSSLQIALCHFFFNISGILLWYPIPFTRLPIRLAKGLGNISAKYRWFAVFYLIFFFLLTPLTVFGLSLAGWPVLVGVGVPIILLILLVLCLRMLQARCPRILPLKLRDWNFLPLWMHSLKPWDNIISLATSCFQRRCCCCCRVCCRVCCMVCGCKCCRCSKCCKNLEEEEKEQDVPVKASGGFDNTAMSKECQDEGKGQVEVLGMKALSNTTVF
Summary of the method: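 Rat NaPi-2b cloned from small-intestine cDNA; cRNA injected into Xenopus oocytes, expression for 2 days. Phosphate uptake inhibition measured with 32P; percent inhibition at 300 μM and 100 μM read from the same inhibition curve.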

Going from `COc1ccc(/C=N/NC(=O)c2cc(Br)ccc2NC(=O)c2ccc(CN3CCC(O)CC3)cc2)cc1` [Compound 330, N-[4-Bromo-2-(4-methoxy-benzylidene-hydrazinocarbonyl)-phenyl]-4-(4-hydroxy-piperidin-1-ylmethyl)-benzamide] to `COc1ccc(/C=N/NC(=O)c2cc(Br)ccc2NC(=O)c2ccc(CN3CCC(CO)CC3)cc2)cc1` [Compound 338, N-[4-Bromo-2-(4-methoxy-benzylidene-hydrazinocarbonyl)-phenyl]-4-(4-hydroxymethyl-piperidin-1-ylmethyl)-benzamide], the IC50 rises from 10.7 µM to 19 µM (1.8-fold).

`COc1cccc(/C=N/NC(=O)c2cc(Br)ccc2NC(=O)c2ccc(CN3CCC(O)CC3)cc2)c1` [Compound 331, N-[4-Bromo-2-(3-methoxy-benzylidene-hydrazinocarbonyl)-phenyl]-4-(4-hydroxy-piperidin-1-ylmethyl)-benzamide] and `COc1cccc(/C=N/NC(=O)c2cc(Br)ccc2NC(=O)c2ccc(CN3CCC(CO)CC3)cc2)c1` [Compound 339, N-[4-Bromo-2-(3-methoxy-benzylidene-hydrazinocarbonyl)-phenyl]-4-(4-hydroxymethyl-piperidin-1-ylmethyl)-benzamide] are within 1.5-fold of each other in IC50: 15.8 µM for the first, 12.8 µM for the second.

Compared with `Cc1ccc(/C=N/NC(=O)c2cc(Br)ccc2NC(=O)c2ccc(CN3CCC(CO)CC3)cc2)cc1C` [Compound 332, N-[4-Bromo-2-(3,4-dimethyl-benzylidene-hydrazinocarbonyl)-phenyl]-4-(4-hydroxymethyl-piperidin-1-ylmethyl)-benzamide], `Cc1ccc(/C=N/NC(=O)c2cc(Br)ccc2NC(=O)c2ccc(CN3CCC(CCO)CC3)cc2)cc1C` [Compound 340, N-[4-Bromo-2-(3,4-dimethyl-benzylidene-hydrazinocarbonyl)-phenyl]-4-[4-(2-hydroxy-ethyl)-piperidin-1-ylmethyl]-benzamide] is 2.9-fold higher in IC50: 2.87 µM for the first, 8.41 µM for the second. The first is the more potent here.

Going from `Cc1ccc(/C=N/NC(=O)c2cc(Br)ccc2NC(=O)c2ccc(CN3CCC(CO)CC3)cc2)cc1` [Compound 333, N-[4-Bromo-2-(4-methyl-benzylidene-hydrazinocarbonyl)-phenyl]-4-(4-hydroxymethyl-piperidin-1-ylmethyl)-benzamide] to `O=C(Nc1ccc(Br)cc1C(=O)N/N=C/c1ccc(F)cc1)c1ccc(CN2CCC(CO)CC2)cc1` [Compound 335, N-[4-Bromo-2-(4-fluoro-benzylidene-hydrazinocarbonyl)-phenyl]-4-(4-hydroxymethyl-piperidin-1-ylmethyl)-benzamide], the IC50 falls from 17.2 µM to 5.86 µM (2.9-fold).

Compared with `Cc1cccc(/C=N/NC(=O)c2cc(Br)ccc2NC(=O)c2ccc(CN3CCC(CO)CC3)cc2)c1` [Compound 334, N-[4-Bromo-2-(3-methyl-benzylidene-hydrazinocarbonyl)-phenyl]-4-(4-hydroxymethyl-piperidin-1-ylmethyl)-benzamide], `O=C(Nc1ccc(Br)cc1C(=O)N/N=C/c1cccc(F)c1)c1ccc(CN2CCC(CO)CC2)cc1` [Compound 336, N-[4-Bromo-2-(3-fluoro-benzylidene-hydrazinocarbonyl)-phenyl]-4-(4-hydroxymethyl-piperidin-1-ylmethyl)-benzamide] is 2.2-fold higher in IC50: 7.69 µM for the first, 16.6 µM for the second. The first is the more potent here.

`O=C(Nc1ccc(Br)cc1C(=O)N/N=C/c1ccc(Cl)c(C(F)(F)F)c1)c1ccc(CN2CCC(CO)CC2)cc1` [Compound 337, N-[4-Bromo-2-(4-chloro-3-trifluoromethyl-benzylidene-hydrazinocarbonyl)-phenyl]-4-(4-hydroxymethyl-piperidin-1-ylmethyl)-benzamide] and `O=C(Nc1ccc(Br)cc1C(=O)N/N=C/c1cccc(F)c1)c1cccc(C[S+]([O-])c2nc[nH]n2)c1` (stereo not drawn) [Compound 341, N-[4-Bromo-2-(3-fluoro-benzylidene-hydrazinocarbonyl)-phenyl]-3-(1H-[1,2,4]triazole-3-sulfinylmethyl)-benzamide] cannot be ordered by IC50: 1.39 µM for the first, < 3 µM for the second.
